Experimental data taken from US12428406B2 (PMV Pharmaceuticals, Inc., priority 2019, dated 2025).

Target: T1, p53 Y220C (Homo sapiens, UniProt P04637, Y220C)
T1 construct: The recombinant protein was a truncation mutant containing only amino acids 94-312 of p53; made in house; host or cells: E. coli
Test: In vitro DNA binding activity assay (HTRF / TR-FRET): stabilization of p53 Y220C and increase of its DNA binding activity
Assay type: biochemical
Conditions: recombinant His-tagged p53 Y220C DNA binding domain (aa 94-312), biotin-labeled consensus DNA, incubated at 27° C. or 29° C. for 60 min
Method in brief: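 E. coli His-p53 Y220C + biotin consensus DNA; anti-His-APC/SA-Eu TR-FRET. SC150 vs no-compound.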

T1 sequence (P04637 94-312, change not shown): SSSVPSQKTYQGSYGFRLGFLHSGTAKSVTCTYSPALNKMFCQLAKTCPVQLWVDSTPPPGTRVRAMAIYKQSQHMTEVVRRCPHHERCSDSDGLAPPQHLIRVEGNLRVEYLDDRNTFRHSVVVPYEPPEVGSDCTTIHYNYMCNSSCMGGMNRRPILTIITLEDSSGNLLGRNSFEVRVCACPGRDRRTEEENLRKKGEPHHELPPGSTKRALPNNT

SC150 (concentration of the compound required to increase the DNA binding activity by 50%)	Structure (SMILES)
+ (+ = 0 μM ≤ SC150 < 0.05 μM)	COC(=O)COc1cc(S(C)(=O)=O)ccc1NCC#Cc1cc2c(N[C@H]3CC[C@H](N4CC5(CCOCC5)C4)CC3)cccc2n1CC(F)(F)F [Compound 309A, methyl 2-(2-((3-(4-((4-(7-oxa-2-azaspiro[3.5]nonan-2-yl)cyclohexyl)amino)-1-(2,2,2-trifluoroethyl)-1H-indol-2-yl)prop-2-yn-1-yl)amino)-5-(methylsulfonyl)phenoxy)acetate]
++ (++ = 0.05 μM ≤ SC150 < 0.1 μM)	CS(=O)(=O)c1ccc(NCC#Cc2cc3c(N[C@H]4CC[C@H](N5CC6(CCOCC6)C5)CC4)cccc3n2CC(F)(F)F)c(OCC(=O)O)c1 [Compound 311A, 2-(2-((3-(4-(((1R,4R)-4-(7-oxa-2-azaspiro[3.5]nonan-2-yl)cyclohexyl)amino)-1-(2,2,2-trifluoroethyl)-1H-indol-2-yl)prop-2-yn-1-yl)amino)-5-(methylsulfonyl)phenoxy)acetic acid]
+ (+ = 0 μM ≤ SC150 < 0.05 μM)	COc1cc(S(C)(=O)=O)ccc1NCC#Cc1cc2c(N[C@H]3CC[C@H](N4CCC5(CC4)COC5)CC3)cccc2n1CC(F)(F)F [Compound 313A, 2-{3-[(4-methane-sulfonyl-2-methoxy-phenyl)amino]prop-1-yn-1-yl}-N-[(1R,4R)-4-{2-oxa-7-azaspiro[3.5]nonan-7-yl}cyclohexyl]-1-(2,2,2-trifluoroethyl)-1H-indol-4-amine]
+ (+ = 0 μM ≤ SC150 < 0.05 μM)	CCS(=O)(=O)c1ccc(NCC#Cc2cc3c(N[C@H]4CC[C@H](N5CC6(CCOCC6)C5)CC4)cccc3n2CC(F)(F)F)c(OC)c1 [Compound 314A, 2-(3-{[4-(ethanesulfonyl)-2-methoxyphenyl]amino}prop-1-yn-1-yl)-N-[(1R,4R)-4-{7-oxa-2-azaspiro[3.5]nonan-2-yl}cyclohexyl]-1-(2,2,2-trifluoroethyl)-1H-indol-4-amine]
+ (+ = 0 μM ≤ SC150 < 0.05 μM)	CCS(=O)(=O)c1ccc(NCC#Cc2cc3c(N[C@H]4CC[C@@H](N5CC6(CCOCC6)C5)CC4)cccc3n2CC(F)(F)F)c(OC)c1 [Compound 315A, 2-(3-{[4-(ethanesulfonyl)-2-methoxyphenyl]amino}prop-1-yn-1-yl)-N-[(1S,4S)-4-{7-oxa-2-azaspiro[3.5]nonan-2-yl}cyclohexyl]-1-(2,2,2-trifluoroethyl)-1H-indol-4-amine]
+ (+ = 0 μM ≤ SC150 < 0.05 μM)	NS(=O)(=O)c1ccc(NCC#Cc2cc3c(N[C@H]4CC[C@H](N5CC6(CCOCC6)C5)CC4)cccc3n2CC(F)(F)F)c(OCF)c1 [Compound 316A, 3-(fluoromethoxy)-4-{[3-(4-{[(1R,4R)-4-{7-oxa-2-azaspiro[3.5]nonan-2-yl}cyclo-hexyl]amino}-1-(2,2,2-trifluoroethyl)-1H-indol-2-yl)prop-2-yn-1-yl]amino}benzene-1-sulfonamide]
+ (+ = 0 μM ≤ SC150 < 0.05 μM)	COc1cc(S(C)(=O)=O)ccc1NCC#Cc1cc2c(N[C@H]3CC[C@H](N4CC5(CCCOC5)C4)CC3)cccc2n1CC(F)(F)F [Compound 322A, 2-{3-[(4-methane-sulfonyl-2-methoxy-phenyl)amino]prop-1-yn-1-yl}-N-[(1R,4R)-4-{6-oxa-2-azaspiro[3.5]nonan-2-yl}cyclohexyl]-1-(2,2,2-trifluoroethyl)-1H-indol-4-amine]
+ (+ = 0 μM ≤ SC150 < 0.05 μM)	CS(=O)(=O)c1ccc(NCC#Cc2cc3c(N[C@H]4CC[C@H](N5CC6(CCOCC6)C5)CC4)cccc3n2CC(F)(F)F)c(OCF)c1 [Compound 324A, N-((1R,4R)-4-(7-oxa-2-azaspiro[3.5]nonan-2-yl)cyclohexyl)-2-(3-((2-(fluoromethoxy)-4-(methylsulfonyl)phenyl)amino)prop-1-yn-1-yl)-1-(2,2,2-trifluoroethyl)-1H-indol-4-amine]
+ (+ = 0 μM ≤ SC150 < 0.05 μM)	COc1cc(C(N)=O)ccc1NCC#Cc1cc2c(N[C@H]3CC[C@H](N4CC5(CCOCC5)C4)CC3)cccc2n1CC(F)(F)F [Compound 331A, 3-methoxy-4-{[3-(4-{[(1R,4R)-4-{7-oxa-2-azaspiro[3.5]nonan-2-yl}cyclohexyl]amino}-1-(2,2,2-trifluoroethyl)-1H-indol-2-yl)prop-2-yn-1-yl]amino}benzamide]

The next lines start with the compound.

Structure (SMILES)	SC150 (concentration of the compound required to increase the DNA binding activity by 50%)
CS(=O)(=O)c1ccc(NCC#Cc2cc3c(N[C@H]4CC[C@@H](N5CC6(CCOCC6)C5)CC4)cccc3n2CC(F)(F)F)c(OCC#N)c1 [Compound 304A, 2-(5-methanesulfonyl-2-{[3-(4-{[(1S,4S)-4-{7-oxa-2-azaspiro[3.5]nonan-2-yl}cyclohexyl]amino}-1-(2,2,2-trifluoroethyl)-1H-indol-2-yl)prop-2-yn-1-yl]amino}phenoxy)acetonitrile]	+ (+ = 0 μM ≤ SC150 < 0.05 μM)
COc1cc(S(=O)(=O)NC(C)=O)ccc1NCC#Cc1cc2c(N[C@H]3CC[C@H](N4CC5(CCOCC5)C4)CC3)cccc2n1CC(F)(F)F [Compound 305A, N-((4-((3-(4-(((1R,4R)-4-(7-oxa-2-azaspiro[3.5]nonan-2-yl)cyclohexyl)amino)-1-(2,2,2-trifluoroethyl)-1H-indol-2-yl)prop-2-yn-1-yl)amino)-3-methoxyphenyl)sulfonyl)acetamide]	+ (+ = 0 μM ≤ SC150 < 0.05 μM)
COc1cc(S(=O)(=O)NC(=O)CN)ccc1NCC#Cc1cc2c(N[C@H]3CC[C@H](N4CC5(CCOCC5)C4)CC3)cccc2n1CC(F)(F)F [Compound 307A, N-((4-((3-(4-(((1R,4R)-4-(7-oxa-2-azaspiro[3.5]nonan-2-yl)cyclohexyl)amino)-1-(2,2,2-trifluoroethyl)-1H-indol-2-yl)prop-2-yn-1-yl)amino)-3-methoxyphenyl)sulfonyl)-2-aminoacetamide]	+ (+ = 0 μM ≤ SC150 < 0.05 μM)
CNC(=O)c1ccc(NCC#Cc2cc3c(N[C@H]4CC[C@H](N5CC6(CCCOC6)C5)CC4)cccc3n2CC(F)(F)F)c(OC)c1 [Compound 318A, 3-methoxy-N-methyl-4-{[3-(4-{[(1R,4R)-4-{6-oxa-2-azaspiro[3.5]nonan-2-yl}cyclohexyl]amino}-1-(2,2,2-trifluoroethyl)-1H-indol-2-yl)prop-2-yn-1-yl]amino} benzamide]	+ (+ = 0 μM ≤ SC150 < 0.05 μM)
COc1cc(S(N)(=O)=O)ccc1NCC#Cc1cc2c(N[C@H]3CC[C@H](N4CC5(CCCOC5)C4)CC3)cccc2n1CC(F)(F)F [Compound 320A, 3-methoxy-4-{[3-(4-{[(1R,4R)-4-{6-oxa-2-azaspiro[3.5]nonan-2-yl}cyclohexyl]amino}-1-(2,2,2-trifluoro-ethyl)-1H-indol-2-yl)prop-2-yn-1-yl]amino} benzene-1-sulfonamide]	+ (+ = 0 μM ≤ SC150 < 0.05 μM)
CNS(=O)(=O)c1ccc(NCC#Cc2cc3c(N[C@H]4CC[C@H](N5CC6(CCOCC6)C5)CC4)cccc3n2CC(F)(F)F)c(OC)c1 [Compound 327A, 4-((3-(4-(((1R,4R)-4-(7-oxa-2-azaspiro[3.5]nonan-2-yl)cyclohexyl)amino)-1-(2,2,2-trifluoroethyl)-1H-indol-2-yl)prop-2-yn-1-yl)amino)-3-methoxy-N-methyl-benzenesulfonamide]	+ (+ = 0 μM ≤ SC150 < 0.05 μM)
CCOc1cc(S(C)(=O)=O)ccc1NCC#Cc1cc2c(N[C@H]3CC[C@H](N4CC5(CCOCC5)C4)CC3)cccc2n1CC(F)(F)F [Compound 329A, N-((1R,4R)-4-(7-oxa-2-azaspiro[3.5]nonan-2-yl)cyclohexyl)-2-(3-((2-ethoxy-4-(methylsulfonyl)phenyl)amino)prop-1-yn-1-yl)-1-(2,2,2-trifluoroethyl)-1H-indol-4-amine]	+ (+ = 0 μM ≤ SC150 < 0.05 μM)
COc1cc(C(N)=O)ccc1NCC#Cc1cc2c(N[C@H]3CC[C@H](N4CC5(CCCOC5)C4)CC3)cccc2n1CC(F)(F)F [Compound 333A, 3-methoxy-4-{[3-(4-{[(1R,4R)-4-{6-oxa-2-azaspiro[3.5]nonan-2-yl}cyclohexyl]amino}-1-(2,2,2-trifluoroethyl)-1H-indol-2-yl)prop-2-yn-1-yl]amino}benzamide]	+ (+ = 0 μM ≤ SC150 < 0.05 μM)
CNC(=O)c1cc(OC)c(NCC#Cc2cc3c(N[C@H]4CC[C@H](N5CC6(CCOCC6)C5)CC4)cccc3n2CC(F)(F)F)cc1F [Compound 335A, 2-fluoro-5-methoxy-N-methyl-4-{[3-(4-{[(1R,4R)-4-{7-oxa-2-azaspiro[3.5]nonan-2-yl}cyclohexyl]amino}-1-(2,2,2-trifluoroethyl)-1H-indol-2-yl)prop-2-yn-1-yl]amino}benzamide]	+ (+ = 0 μM ≤ SC150 < 0.05 μM)
CS(=O)(=O)c1ccc(NCC#Cc2cc3c(NC4CCC(N5CCOCC5)CC4)cccc3n2CC(F)(F)F)c(OCF)c1 [Compound 340A, 2-(3-{[2-(fluoro-methoxy)-4-methane-sulfonylphenyl]amino}prop-1-yn-1-yl)-N-[(1R,4R)-4-(morpholin-4-yl)cyclohexyl]-1-(2,2,2-trifluoroethyl)-1H-indol-4-amine]	+ (+ = 0 μM ≤ SC150 < 0.05 μM)
N#CCOc1cc(S(N)(=O)=O)ccc1NCC#Cc1cc2c(N[C@H]3CC[C@H](N4CCOCC4)CC3)cccc2n1CC(F)(F)F [Compound 342A, 3-(cyanomethoxy)-4-{[3-(4-{[(1R,4R)-4-(morpholin-4-yl)cyclohexyl]amino}-1-(2,2,2-trifluoroethyl)-1H-indol-2-yl)prop-2-yn-1-yl]amino}benzene-1-sulfonamide]	+ (+ = 0 μM ≤ SC150 < 0.05 μM)
